One may read the IC50 as the midpoint of a concentration-inhibition curve.

Consider five molecules from patent publication US20100004243A1, “PHARMACEUTICAL COMPOUNDS” (Astex Therapeutics Limited, priority 2006, published 2010).

The target in assay [1] is T1, CDK4/CyclinD1 (Homo sapiens, UniProt P11802).
T1 construct: purchased Proqinase
The assay can be described thus: CDK4 kinase inhibitory activity assay (IC50). Format: biochemical. Particulars: read-out: IC50 against CDK4. The procedure: Assays for CDK4 inhibitory activity can be carried out using the proprietary 33 PanQinase® Activity Assay of Proqinase GmbH, Freiburg, Germany. The assays are performed in 96 well FlashPlates™ (PerkinElmer). In each case, the reaction cocktail (50 μl final volume) is composed of; 20 μl assay buffer (final composition 60 mM HEPES-NaOH, pH 7.5, 3 mM MgCl2, 3 μM Na-orthovanadate, 1.2 mM DTT, 50 μg/ml PEG2000, 5 μl ATP solution (final concentration 1 μM [γ-33P]-ATP (approx 5×10^5 cpm per well)), 5 μl test compound (in 10% DMSO), 10 μl substrate/10 μl enzyme solution (premixed). The final amounts of enzyme and substrate are as below.
The reaction cocktail is incubated at 30° C. for 80 minutes. The reaction is stopped with 50 μl of 2% H3PO4, plates are aspirated and washed twice with 200 μl 0.9% NaCl. Incorporation of ^33P is determined with a microplate scintillation counter. Background values are subtracted from the data before calculating the residual activities for each well. IC50s are calculated using Prism 3.03.
Compounds of the invention can be tested for kinase inhibitory activity using the following protocol.
CDK4/CyclinD1 (Proqinase) is diluted to 12.5 nM in 5 mM Tris pH 7.5, 2.5 mM MgCl2, 25 μM EDTA, 2.5 m M DTT and 125 μM ATP. 10 μl of the enzyme solution is mixed with 10 μl of 100 μl biotin -KAPLSPKKAK4 (Altabioscience, 1 mM stock—10 mg in 2,250 μl H20), 900 μl H2O, 1 μl 10% triton and 35 μCi γ^33P-ATP) and added to 96 well plates along with 5 μl of various dilutions of the test compound in DMSO (up to 4%). The reaction is allowed to proceed for 2 hours before being stopped with an excess of ortho-phosphoric acid (20 μl at 2%).
γ^33P-ATP which remains unincorporated into the biotin -KAPLSPKKAK4 is separated from phosphorylated biotin -KAPLSPKKAK4 on a Millipore MAPH filter plate. The wells of the MAPH plate are wetted with 0.5% orthophosphoric acid, and then the results of the reaction are filtered with a Millipore vacuum filtration unit through the wells. Following filtration, the residue is washed twice with 200 μl of 0.5% orthophosphoric acid. Once the filters have dried, 20 μl of Microscint 20 scintillant is added, and then counted on a Packard Topcount for 30 seconds.
The % inhibition of the CDK4 activity is calculated and plotted in order to determine the concentration of test compound required to inhibit 50% of the CDK4 activity (IC50).

Assay [2] deals with CDK2/CyclinA (Homo sapiens, UniProt P24941). Put plainly: Activated CDK2/CyclinA kinase inhibitory activity assay, compared with CDK4. Format: biochemical. The procedure:
Compounds of the invention were tested for kinase inhibitory activity using the following protocol.
Activated CDK2/CyclinA (Brown et al, Nat. Cell Biol., 1, pp 438-443, 1999; Lowe, E. D., et al Biochemistry, 41, pp 15625-15634, 2002) is diluted to 125 pM in 2.5× strength assay buffer (50 mM MOPS pH 7.2, 62.5 mM β-glycerophosphate, 12.5 mM EDTA, 37.5 mM MgCl2, […], 2.5 mM DTT, 2.5 mM sodium orthovanadate, 0.25 mg/ml bovine serum albumin), and 10 μl mixed with 10 μl of histone substrate mix (60 μl bovine histone Hi (Upstate Biotechnology, 5 mg/ml), 940 μl H2O, 35 μCi γ^33P-ATP) and added to 96 well plates along with 5 μl of various dilutions of the test compound in DMSO (up to 2.5%). The reaction is allowed to proceed for 2 to 4 hours before being stopped with an excess of orthophosphoric acid (5 μl at 2%). γ^33P-ATP which remains unincorporated into the histone H1 is separated from phosphorylated histone H1 on a Millipore MAPH filter plate. The wells of the MAPH plate are wetted with 0.5% orthophosphoric acid, and then the results of the reaction are filtered with a Millipore vacuum filtration unit through the wells. Following filtration, the residue is washed twice with 200 μl of 0.5% orthophosphoric acid. Once the filters have dried, 20 μl of Microscint 20 scintillant is added, and then counted on a Packard Topcount for 30 seconds.
The % inhibition of the CDK2 activity is calculated and plotted in order to determine the concentration of test compound required to inhibit 50% of the CDK2 activity (IC50).

T1 sequence (P11802 whole entry): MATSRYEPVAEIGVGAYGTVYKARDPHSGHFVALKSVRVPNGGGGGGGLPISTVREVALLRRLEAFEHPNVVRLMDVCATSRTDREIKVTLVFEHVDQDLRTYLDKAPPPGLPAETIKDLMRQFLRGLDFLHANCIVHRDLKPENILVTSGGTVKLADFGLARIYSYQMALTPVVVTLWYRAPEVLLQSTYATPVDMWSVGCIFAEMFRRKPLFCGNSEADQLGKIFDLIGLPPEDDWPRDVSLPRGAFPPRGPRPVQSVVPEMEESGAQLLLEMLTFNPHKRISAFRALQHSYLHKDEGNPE
T1 sequence (P24385 whole entry partner): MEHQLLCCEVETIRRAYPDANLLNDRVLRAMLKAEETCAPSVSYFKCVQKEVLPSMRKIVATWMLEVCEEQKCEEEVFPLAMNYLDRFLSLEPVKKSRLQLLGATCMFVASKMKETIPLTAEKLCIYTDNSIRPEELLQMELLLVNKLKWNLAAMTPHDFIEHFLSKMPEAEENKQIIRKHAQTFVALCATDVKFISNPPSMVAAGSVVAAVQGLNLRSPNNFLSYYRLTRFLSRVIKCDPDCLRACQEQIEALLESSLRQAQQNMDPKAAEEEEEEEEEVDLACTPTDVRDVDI

As to `O=C(Nc1nnc(CCN2CCCCC2)s1)c1n[nH]cc1NC(=O)c1c(F)cccc1F` [Example 1], the IC50 in assay [1] was under 5000 nM.
On to `O=C(Nc1ccc(N2CCNCC2)cn1)c1n[nH]cc1NC(=O)c1c(Cl)cccc1Cl` [Example 7], for which the half-inhibitory concentration (IC50) in assay [1] was under 100 nM. Further, in assay [2], the “selectivity for CDK4 relative to CDK2 (in words)” value is listed as “selective for CDK4 relative to CDK2”.
In the same order, the values of `CN(C)C1CCN(c2ccc(NC(=O)c3n[nH]cc3NC(=O)c3c(F)cccc3F)nc2)CC1` [Example 8] are under 100 nM and “selective for CDK4 relative to CDK2”.
The matching figures for `CN(C)C1CCN(c2ccc(NC(=O)c3n[nH]cc3NC(=O)c3c(F)cccc3F)cc2)CC1` [Example 9]: under 100 nM and “selective for CDK4 relative to CDK2”.
In the same order, the values of `O=C(Nc1ccc(N2CCNCC2)cn1)c1n[nH]cc1NC(=O)c1c(F)cccc1F` [Example 10] are under 100 nM and “selective for CDK4 relative to CDK2”.
